Data published in patent US8507676B2, “Heterocyclic oxime compounds” (Novartis AG, priority 2009, dated 2013).

Key:
[1] = biological target: c-MET receptor tyrosine kinase, GST-c-MET(969-1390) (Homo sapiens (Human), UniProt P08581); test: EPK c-MET profiling assay (LanthaScreen TR-FRET kinase assay); type: biochemical; conditions: recombinant GST-c-MET(969-1390), 2 μM ATP, 60 minutes at room temperature; read-out: c-Met biochem (IC50 nM)
Method: A number of compounds of the present invention were assayed in an antibody based kinase phosphorylation assay as follows.
EPK c-MET Profiling Assay:
The EPK kinase assay for c-MET receptor tyrosine kinase was developed, using the purified recombinant GST-fusion protein, containing the cytoplasmic domain of the enzyme.
The kinase assay is based on the LanthaScreen™ technology. LanthaScreen™ is the detection of Time-Resolved Fluorescence Resonance Energy Transfer (TR-FRET) using lanthanide chelates to measure interactions between various binding partners. In a TR-FRET kinase assay, a long-lifetime lanthanide donor species is conjugated to an antibody that specifically binds to a phosphorylated product of a kinase reaction that is labeled with a suitable acceptor fluorophore. This antibody-mediated interaction brings the lanthanide donor and the acceptor into proximity such that resonance energy transfer can take place, resulting in a detectable increase in the FRET signal.
The kinase reactions were performed in 384 well microtiter plates in a total reaction volume of 10.05 μL. […]
Subsequently 5 μL of detection mix (50 mM Tris/HCl, 2 mM DTT, 0.05% Tween20, 20 μM sodium orthovanadate, 1% BSA, 1 nM Tb-PY20 antibody) were added to the stopped reactions. After 45 minutes incubation in dark at room temperature, the plates were measured in a Perkinelmer Envision fluorescence reader.

[2] = stability of the isolated compound at nucleophiles such as methanol; type: physicochemical; conditions: degrades into starting material 75-R
Method: Previously prepared (E)-1-(3-(1-(5,7-difluoroquinolin-6-yl)ethyl)-[1,2,4]triazolo[4,3-b]pyridazin-6-yl)ethanone oxime (75-R, 100 mg, 0.271 mmol) in anhydrous THF (8 mL) was added diphosgene (0.1 mL, 0.829 mmol) dropwise at 0° C., and the reaction mixture was heated at 50° C. for 4 hr. Oil bath was removed, and the reaction mixture was cooled in an ice-water bath. An ammonia solution (0.5 N in dioxane, 8.0 mL, 4.0 mmol) was added dropwise. The temperature was allowed to rise to rt naturally, and the reaction mixture was stirred at rt overnight. Solvent was evaporated, and the residue was purified by column chromatography (8% methanol in ethyl acetate as eluent) to afford 64 mg (45.8% yield) of title compound as white solid, which was unstable at nucleophiles such as methanol, and was pro to degrade into starting material 75-R. ^1H-NMR (400 MHz, DMSO-d6) δ ppm 8.96 (d, 1H), 8.44 (d, 1H), 8.34 (d, 1H), 8.10 (d, 1H), 7.56-7.74 (m, 2H), 7.34 (s br, 2H), 5.27 (q, 1H), 2.02 (d, 3H), 2.03 (s, 3H). LCMS (method B): [MH]^+=412, tR=2.25 min.

Sequence of c-MET receptor tyrosine kinase, GST-c-MET(969-1390) (P08581 969-1390): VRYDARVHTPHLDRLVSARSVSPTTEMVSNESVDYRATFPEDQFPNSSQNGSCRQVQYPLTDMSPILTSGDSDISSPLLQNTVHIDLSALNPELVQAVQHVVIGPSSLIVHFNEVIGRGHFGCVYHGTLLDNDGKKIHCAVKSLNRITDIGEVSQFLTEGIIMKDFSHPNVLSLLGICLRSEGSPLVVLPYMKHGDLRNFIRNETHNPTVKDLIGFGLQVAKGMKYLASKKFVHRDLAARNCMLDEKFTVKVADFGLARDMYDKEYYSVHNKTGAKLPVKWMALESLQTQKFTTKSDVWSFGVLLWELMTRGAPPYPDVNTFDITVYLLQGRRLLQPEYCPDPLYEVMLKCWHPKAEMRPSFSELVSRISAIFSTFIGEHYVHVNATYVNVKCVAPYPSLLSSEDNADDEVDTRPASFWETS

Structure (SMILES)	IC50 [1] [nM]	stability at nucleophiles such as methanol [2]
C/C(=N\OCCO)c1ccc2nnc(C(F)(F)c3ccc4ncccc4c3)n2n1 [Example 50, (E)-1-(3-(Difluoro(quinolin-6-yl)methyl)-[1,2,4]triazolo[4,3-b]pyridazin-6-yl)ethanone O-2-hydroxyethyl oxime]	1.5	–
C/C(=N\OC(N)=O)c1ccc2nnc([C@H](C)c3c(F)cc4ncccc4c3F)n2n1 [Example 77-R, (R,E)-1-(3-(1-(5,7-difluoroquinolin-6-yl)ethyl)-[1,2,4]triazolo[4,3-b]pyridazin-6-yl)ethanone O-carbamoyl oxime]	–	unstable
